In the NIST ThermoML archive (doi:10.1016/j.fluid.2012.12.036):
± gives the expanded uncertainty stated by the source.

Details: Crystal; for vapor or sublimation pressure: Calculated from knudsen effusion weight loss; for Normal melting temperature: visual observation

Structure (SMILES): Brc1c2ccccc2cc2ccccc12 [9-bromoanthracene]
- vapor or sublimation pressure (314.8 K): 5.1e-06 ± 5.9e-07 kPa
- vapor or sublimation pressure (319.8 K): 1.06e-05 ± 1.2e-06 kPa
- vapor or sublimation pressure (324.8 K): 1.71e-05 ± 1.9e-06 kPa
- vapor or sublimation pressure (329.8 K): 3.26e-05 ± 3.5e-06 kPa
- vapor or sublimation pressure (334.9 K): 5.32e-05 ± 5.8e-06 kPa
- vapor or sublimation pressure (339.9 K): 9.3e-05 ± 1e-05 kPa
- vapor or sublimation pressure (345 K): 0.000158 ± 1.7e-05 kPa
- vapor or sublimation pressure (350 K): 0.000261 ± 2.8e-05 kPa
- vapor or sublimation pressure (355 K): 0.000418 ± 4.5e-05 kPa
- Normal melting temperature: 101.00 ± 0.41 °C

Structure (SMILES): Brc1ccc2cc3ccccc3cc2c1 [anthracene, 2-bromo-]
- vapor or sublimation pressure (334.8 K): 5.41e-06 ± 6e-07 kPa
- vapor or sublimation pressure (339.8 K): 9.21e-06 ± 1e-06 kPa
- vapor or sublimation pressure (344.9 K): 1.56e-05 ± 1.7e-06 kPa
- vapor or sublimation pressure (350 K): 2.61e-05 ± 2.8e-06 kPa
- vapor or sublimation pressure (355 K): 4.15e-05 ± 4.5e-06 kPa
- vapor or sublimation pressure (360.1 K): 7.18e-05 ± 7.8e-06 kPa
- vapor or sublimation pressure (365.2 K): 0.000114 ± 1.2e-05 kPa
- vapor or sublimation pressure (370.4 K): 0.000184 ± 2e-05 kPa
- vapor or sublimation pressure (375.3 K): 0.000287 ± 3.1e-05 kPa
- vapor or sublimation pressure (380.4 K): 0.000437 ± 4.7e-05 kPa
- vapor or sublimation pressure (385.4 K): 0.000652 ± 7e-05 kPa
- vapor or sublimation pressure (390.4 K): 0.000887 ± 9.5e-05 kPa
- Normal melting temperature: 220.70 ± 0.41 °C

Structure (SMILES): c1ccc2cc3ccccc3cc2c1 [anthracene]
- vapor or sublimation pressure (322.9 K): 1.82e-05 ± 2e-06 kPa
- vapor or sublimation pressure (328 K): 2.97e-05 ± 3.2e-06 kPa
- vapor or sublimation pressure (333 K): 5.58e-05 ± 6e-06 kPa
- vapor or sublimation pressure (338.1 K): 8.91e-05 ± 9.6e-06 kPa
- vapor or sublimation pressure (343.1 K): 0.000146 ± 1.6e-05 kPa
- vapor or sublimation pressure (348.2 K): 0.000233 ± 2.5e-05 kPa
- Normal melting temperature: 216.90 ± 0.41 °C
